Source: ChEMBL document CHEMBL1201862, “PubChem BioAssay data set” (2004)
The source made the active and inactive calls.

Tests used:
[1] = molecular target: Serine/threonine-protein kinase Chk2 (Homo sapiens, UniProt O96017); type: functional;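 note: CHEK2 entry within a kinome-wide screening panel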
Aurora kinase A = Aurora kinase A (Homo sapiens, UniProt O14965); type: functional;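 note: value from the Navigating the Kinome kinase panel profiling, panel entry STK6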
[2] = molecular target: Casein kinase II subunit alpha (Homo sapiens, UniProt P68400); type: functional
[3] = molecular target: Fibroblast growth factor receptor 1 (Homo sapiens, UniProt P11362); type: functional
[4] = molecular target: MAP/microtubule affinity-regulating kinase 3 (Homo sapiens, UniProt P27448); type: functional;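 note: MARK3 affinity measured as one member of a kinome panel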
[5] = molecular target: Cyclin-dependent kinase 1 (Homo sapiens, UniProt P06493); type: functional;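 note: Kinome-wide panel profiling, with the target listed as panel member CDC2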
[6] = NIH-3T3 fibroblast cytotoxicity, dose response, cytotoxicity control, cell-based, fluorescence, Alamar Blue, secondary assay (AID 2327); type: functional;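 note: NIH-3T3 mouse fibroblasts cultured with fluconazole at 8 µg/mL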
[7] = viability of uninfected HEp-2 cells – cell-based, HTS, cytotoxicity control for RSV inhibitor project, dose response (AID 2410); type: functional; conditions: human respiratory syncytial virus
[8] = test system: Streptococcus sp. 'group A'; assay: Streptococcus pyogenes SK(-)GAS viability under kanamycin – luminescence, BacTiterGlo, confirmation, counter-screen for streptokinase expression inhibitor project, dose response (AID 1900); type: functional, organism-based
Streptokinase A = molecular target: T1, Streptokinase A (Streptococcus pyogenes serotype M1, UniProt P10520); assay: viability-normalized secreted streptokinase activity reduction – plasminogen activation absorbance, OD405, dose response (AID 1914); type: functional, Streptococcus pyogenes M1 GAS;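 note: secreted streptokinase activity via plasminogen activation per viability signal from cell pellet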
T1 sequence (P10520 whole entry): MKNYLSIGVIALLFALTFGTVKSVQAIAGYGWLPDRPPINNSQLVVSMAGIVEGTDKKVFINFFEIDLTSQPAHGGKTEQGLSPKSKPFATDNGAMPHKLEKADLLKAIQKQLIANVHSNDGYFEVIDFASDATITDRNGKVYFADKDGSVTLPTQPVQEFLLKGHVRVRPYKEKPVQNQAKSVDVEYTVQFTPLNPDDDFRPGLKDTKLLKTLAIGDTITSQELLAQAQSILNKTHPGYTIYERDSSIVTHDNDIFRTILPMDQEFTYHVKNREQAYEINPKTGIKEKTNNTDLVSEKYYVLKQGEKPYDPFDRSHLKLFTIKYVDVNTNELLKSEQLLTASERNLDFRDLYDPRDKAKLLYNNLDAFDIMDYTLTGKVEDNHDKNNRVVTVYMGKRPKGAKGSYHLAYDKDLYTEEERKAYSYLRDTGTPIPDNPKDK

[9] = fluconazole-exposed Candida albicans growth modulators – fluorescence, retest, confirmation (AID 2467); type: functional, cell-based
Streptococcus = assay: GAS UMAA2166 growth inhibition – luminescence, BacTiterGlo, counter-screen for streptokinase expression inhibitor project, dose response (AID 1915); type: functional, organism-based;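 note: potency for reduction of bacterial viability or growth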
CHO-K1 = assay: (§1) Counterscreen for antagonists of the orexin 1 receptor (OX1R; HCRTR1): Homogeneous time resolved fluorescence (HTRF)-based cell-based dose response assay to identify antagonists of the parental CHO-K1 cell line. [Related pubchem assays (depositor defined):AID434989, AID435008, AID463079, AID485270, AID492963, AID492964, AID492965, AID493232, AID504699, AID504701]; type: functional; conditions: Cricetulus griseus
[10] = as §1, with “Fluorescence-based” for “Homogeneous time resolved fluorescence (HTRF)-based”, “cell-based high throughput” for “cell-based”, “CHO” for “CHO-K1”; type: functional
[11] = molecular target: T2, Orexin/Hypocretin receptor type 1 (Homo sapiens, UniProt O43613); assay: Homogeneous Time Resolved Fluorescence (HTRF)-based cell-based high throughput dose response assay for antagonists of the orexin 1 receptor (OX1R; HCRTR1). [Related pubchem assays (depositor defined):AID434989, AID435008, AID463079, AID485270, AID492963, AID492964, AID492965, AID493232, AID504717, AID504718]; type: functional
[12] = molecular target: T2, Orexin/Hypocretin receptor type 1; assay: Fluorescence-based cell-based high throughput dose response assay for antagonists of the orexin 1 receptor (OX1R; HCRTR1). [Related pubchem assays (depositor defined):AID434989, AID435008, AID463079, AID485270, AID492963, AID492964, AID492965, AID493232, AID504717, AID504718]; type: functional
[13] = molecular target: T3, Replicative DNA helicase DnaB (Mycobacterium tuberculosis, UniProt P9WMR3); assay: DnaB intein splicing inhibitors, dose response, biochemical, cell-free fluorescence (AID 449749); type: functional
T3 sequence (P9WMR3 whole entry): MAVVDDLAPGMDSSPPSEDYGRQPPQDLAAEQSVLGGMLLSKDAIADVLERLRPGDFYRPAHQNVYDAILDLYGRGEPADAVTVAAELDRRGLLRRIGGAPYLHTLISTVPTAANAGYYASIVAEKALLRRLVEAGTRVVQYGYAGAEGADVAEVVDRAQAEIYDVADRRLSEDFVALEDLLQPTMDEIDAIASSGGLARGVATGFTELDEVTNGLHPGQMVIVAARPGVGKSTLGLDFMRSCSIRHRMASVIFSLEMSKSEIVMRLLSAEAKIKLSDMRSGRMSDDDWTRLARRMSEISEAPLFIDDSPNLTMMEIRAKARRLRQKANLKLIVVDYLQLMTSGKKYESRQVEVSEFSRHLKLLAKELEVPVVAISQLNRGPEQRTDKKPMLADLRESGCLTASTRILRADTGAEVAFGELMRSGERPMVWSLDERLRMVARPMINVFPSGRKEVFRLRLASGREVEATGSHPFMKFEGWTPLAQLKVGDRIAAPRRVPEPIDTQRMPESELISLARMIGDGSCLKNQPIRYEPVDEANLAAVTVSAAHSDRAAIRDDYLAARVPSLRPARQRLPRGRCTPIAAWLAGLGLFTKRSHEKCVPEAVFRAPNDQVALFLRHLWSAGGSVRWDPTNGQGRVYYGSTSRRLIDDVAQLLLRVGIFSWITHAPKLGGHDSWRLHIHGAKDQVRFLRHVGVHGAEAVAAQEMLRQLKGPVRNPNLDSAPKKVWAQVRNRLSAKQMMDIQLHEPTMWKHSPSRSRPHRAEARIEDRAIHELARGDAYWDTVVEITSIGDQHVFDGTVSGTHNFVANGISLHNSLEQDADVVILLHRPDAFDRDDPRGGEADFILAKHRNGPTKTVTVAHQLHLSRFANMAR

Protein RecA = molecular target: T4, Protein RecA (Mycobacterium tuberculosis, UniProt P9WHJ3); assay: Fluorescence Cell-Free Homogeneous Dose Retest to Identify Inhibitors of RecA-Intein Splicing Activity. [Related pubchem assays (depositor defined):AID2097, AID2223, AID489010, AID492950]; type: functional
T4 sequence (P9WHJ3 whole entry): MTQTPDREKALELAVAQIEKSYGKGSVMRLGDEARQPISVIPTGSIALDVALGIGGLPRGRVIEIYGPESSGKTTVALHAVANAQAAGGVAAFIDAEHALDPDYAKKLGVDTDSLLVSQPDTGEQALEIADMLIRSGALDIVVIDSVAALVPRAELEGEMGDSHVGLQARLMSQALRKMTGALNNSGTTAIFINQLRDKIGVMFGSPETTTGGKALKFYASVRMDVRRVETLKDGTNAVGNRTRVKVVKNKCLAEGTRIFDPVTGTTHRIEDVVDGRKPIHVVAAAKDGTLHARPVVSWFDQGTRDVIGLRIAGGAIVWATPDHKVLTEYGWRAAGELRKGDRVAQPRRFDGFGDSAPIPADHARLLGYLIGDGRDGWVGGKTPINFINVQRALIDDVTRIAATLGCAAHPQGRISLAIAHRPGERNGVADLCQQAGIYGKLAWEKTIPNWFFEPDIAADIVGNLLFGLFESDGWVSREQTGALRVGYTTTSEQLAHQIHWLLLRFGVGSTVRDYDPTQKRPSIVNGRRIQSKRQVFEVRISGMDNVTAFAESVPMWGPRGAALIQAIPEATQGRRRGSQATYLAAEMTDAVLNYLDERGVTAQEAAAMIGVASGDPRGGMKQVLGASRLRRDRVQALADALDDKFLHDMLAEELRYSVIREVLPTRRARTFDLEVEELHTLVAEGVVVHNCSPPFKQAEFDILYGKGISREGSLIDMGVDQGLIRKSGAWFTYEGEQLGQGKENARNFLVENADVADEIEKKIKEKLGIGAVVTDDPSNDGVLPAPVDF

INS1 = assay: INS-1E survival protection against cytokine death – cell-based, luminescence, retest, dose response (AID 449756); type: functional; conditions: Rattus norvegicus;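 note: cell death triggered by IL-1 beta plus TNF-alpha plus IFN-gamma mixture; protective hits raise ATP signal compared with cytokine alone wells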
Orexin receptor type 2 [14] = molecular target: T5, Orexin receptor type 2 (Homo sapiens, UniProt O43614); assay: Counterscreen assay for antagonists of the orexin 1 receptor (OX1R; HCRTR1): Fluorescence-based cell-based dose response assay for antagonists of the orexin 2 receptor (OX2R; HCRTR2), run by assay provider.; type: functional
Orexin receptor type 2 [15] = molecular target: T5, Orexin receptor type 2; assay: Counterscreen assay for antagonists of the orexin 1 receptor (OX1R; HCRTR1): Homogeneous Time Resolved Fluorescence (HTRF)-based cell-based dose response assay for antagonists of the orexin 2 receptor (OX2R; HCRTR2), run by assay provider.; type: functional
Paired box protein Pax-8 = Paired box protein Pax-8 (Homo sapiens, UniProt Q06710); assay: PAX8 transcriptional activity inhibition in RMG-I – RMG-I cells, luciferase, cherry-pick, dose response (AID 687027); type: functional, cell-based;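 note: luciferase reporter driven by Pax8 target thyroperoxidase promoter measured by SteadyGlo luminescence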
[16] = general cell-killing toxicity readout – plate reader, dry powder samples, cytotoxicity control for PAX8 inhibitor project, dose response (AID 743021); type: functional, cell-based

T2 sequence (O43613 whole entry): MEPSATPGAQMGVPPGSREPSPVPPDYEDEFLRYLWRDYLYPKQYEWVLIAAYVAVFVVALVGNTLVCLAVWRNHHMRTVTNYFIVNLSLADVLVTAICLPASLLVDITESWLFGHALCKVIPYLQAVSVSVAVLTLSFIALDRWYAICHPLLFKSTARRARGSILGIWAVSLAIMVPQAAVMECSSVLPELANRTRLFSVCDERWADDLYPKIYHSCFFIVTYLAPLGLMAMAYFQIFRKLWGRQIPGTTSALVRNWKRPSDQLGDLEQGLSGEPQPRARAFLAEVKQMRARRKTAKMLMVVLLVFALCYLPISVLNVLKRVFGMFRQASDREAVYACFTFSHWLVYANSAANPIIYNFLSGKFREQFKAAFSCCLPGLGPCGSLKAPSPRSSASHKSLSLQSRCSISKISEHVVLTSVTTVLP
T5 sequence (O43614 whole entry): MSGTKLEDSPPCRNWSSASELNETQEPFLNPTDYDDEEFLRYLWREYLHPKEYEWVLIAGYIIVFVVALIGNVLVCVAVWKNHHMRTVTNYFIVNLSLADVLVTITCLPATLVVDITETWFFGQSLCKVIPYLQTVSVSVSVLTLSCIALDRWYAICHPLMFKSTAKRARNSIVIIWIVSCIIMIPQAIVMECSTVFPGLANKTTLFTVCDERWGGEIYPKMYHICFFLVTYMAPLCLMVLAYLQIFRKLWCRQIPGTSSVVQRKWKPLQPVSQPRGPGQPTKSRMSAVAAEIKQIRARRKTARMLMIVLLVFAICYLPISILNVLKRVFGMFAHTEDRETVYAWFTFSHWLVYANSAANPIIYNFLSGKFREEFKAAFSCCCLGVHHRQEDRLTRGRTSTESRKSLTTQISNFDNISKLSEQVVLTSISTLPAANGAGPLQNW
Cyclin-dependent kinase 1, sequence (P06493 whole entry): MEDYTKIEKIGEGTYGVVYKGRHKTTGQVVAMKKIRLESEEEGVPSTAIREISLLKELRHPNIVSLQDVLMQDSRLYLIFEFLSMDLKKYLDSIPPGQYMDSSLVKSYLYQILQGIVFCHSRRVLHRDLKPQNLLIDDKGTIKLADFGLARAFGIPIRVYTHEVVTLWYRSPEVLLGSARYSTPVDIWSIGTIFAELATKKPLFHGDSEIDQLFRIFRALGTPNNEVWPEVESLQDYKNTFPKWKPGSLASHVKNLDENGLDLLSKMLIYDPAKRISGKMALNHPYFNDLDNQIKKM
MAP/microtubule affinity-regulating kinase 3, sequence (P27448 whole entry): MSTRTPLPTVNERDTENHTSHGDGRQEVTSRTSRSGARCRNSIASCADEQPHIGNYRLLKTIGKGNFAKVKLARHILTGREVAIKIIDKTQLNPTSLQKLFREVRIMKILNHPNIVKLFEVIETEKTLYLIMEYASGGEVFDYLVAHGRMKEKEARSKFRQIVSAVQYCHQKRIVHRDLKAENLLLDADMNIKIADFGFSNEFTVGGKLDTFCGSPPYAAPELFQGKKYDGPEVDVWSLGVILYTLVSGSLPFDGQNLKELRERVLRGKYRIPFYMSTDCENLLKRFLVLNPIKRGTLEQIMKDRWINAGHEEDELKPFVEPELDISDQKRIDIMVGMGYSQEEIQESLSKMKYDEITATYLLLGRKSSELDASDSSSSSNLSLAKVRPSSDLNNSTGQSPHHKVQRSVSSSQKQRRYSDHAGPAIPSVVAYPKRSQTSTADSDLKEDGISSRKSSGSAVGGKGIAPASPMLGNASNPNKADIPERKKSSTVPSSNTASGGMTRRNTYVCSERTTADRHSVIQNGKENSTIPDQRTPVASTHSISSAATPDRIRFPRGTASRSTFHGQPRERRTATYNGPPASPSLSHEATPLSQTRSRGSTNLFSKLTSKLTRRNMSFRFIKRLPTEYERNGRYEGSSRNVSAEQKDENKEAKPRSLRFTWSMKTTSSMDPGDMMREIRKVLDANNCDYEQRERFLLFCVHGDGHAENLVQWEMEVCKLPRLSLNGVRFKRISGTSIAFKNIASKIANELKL
Aurora kinase A, sequence (O14965 whole entry): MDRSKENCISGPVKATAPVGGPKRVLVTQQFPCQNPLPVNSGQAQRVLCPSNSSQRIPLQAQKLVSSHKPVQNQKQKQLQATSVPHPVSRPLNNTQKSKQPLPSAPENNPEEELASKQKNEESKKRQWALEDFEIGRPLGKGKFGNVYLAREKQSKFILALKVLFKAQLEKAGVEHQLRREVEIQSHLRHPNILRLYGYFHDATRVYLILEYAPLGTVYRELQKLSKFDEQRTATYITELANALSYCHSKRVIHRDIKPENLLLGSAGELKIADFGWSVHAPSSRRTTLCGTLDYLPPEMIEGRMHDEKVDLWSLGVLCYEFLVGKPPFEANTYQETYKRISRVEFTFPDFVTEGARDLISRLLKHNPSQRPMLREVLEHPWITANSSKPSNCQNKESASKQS
Casein kinase II subunit alpha, sequence (P68400 whole entry): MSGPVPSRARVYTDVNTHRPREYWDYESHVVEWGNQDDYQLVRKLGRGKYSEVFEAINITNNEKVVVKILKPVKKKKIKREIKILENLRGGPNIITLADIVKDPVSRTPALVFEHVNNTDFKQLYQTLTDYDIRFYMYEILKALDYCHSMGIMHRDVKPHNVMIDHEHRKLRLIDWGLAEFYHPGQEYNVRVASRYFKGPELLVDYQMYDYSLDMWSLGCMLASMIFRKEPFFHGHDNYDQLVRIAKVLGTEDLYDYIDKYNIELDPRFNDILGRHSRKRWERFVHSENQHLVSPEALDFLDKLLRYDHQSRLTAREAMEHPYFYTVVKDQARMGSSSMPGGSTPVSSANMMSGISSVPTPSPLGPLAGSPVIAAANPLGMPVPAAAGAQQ
Serine/threonine-protein kinase Chk2, sequence (O96017 whole entry): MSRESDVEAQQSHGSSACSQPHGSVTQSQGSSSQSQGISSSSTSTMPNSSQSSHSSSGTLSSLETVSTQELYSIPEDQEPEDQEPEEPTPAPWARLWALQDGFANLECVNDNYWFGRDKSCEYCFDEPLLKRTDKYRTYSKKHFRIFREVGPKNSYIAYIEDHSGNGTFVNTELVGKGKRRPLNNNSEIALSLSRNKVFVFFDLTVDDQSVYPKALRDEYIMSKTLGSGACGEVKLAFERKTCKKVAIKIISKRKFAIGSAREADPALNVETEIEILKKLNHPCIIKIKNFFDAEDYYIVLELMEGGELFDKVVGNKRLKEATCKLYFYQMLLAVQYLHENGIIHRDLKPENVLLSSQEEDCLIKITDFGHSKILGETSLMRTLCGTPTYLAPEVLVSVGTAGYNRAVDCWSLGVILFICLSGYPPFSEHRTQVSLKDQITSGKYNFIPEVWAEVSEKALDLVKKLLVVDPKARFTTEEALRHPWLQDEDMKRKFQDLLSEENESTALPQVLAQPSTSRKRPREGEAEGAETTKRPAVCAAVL
Paired box protein Pax-8, sequence (Q06710 whole entry): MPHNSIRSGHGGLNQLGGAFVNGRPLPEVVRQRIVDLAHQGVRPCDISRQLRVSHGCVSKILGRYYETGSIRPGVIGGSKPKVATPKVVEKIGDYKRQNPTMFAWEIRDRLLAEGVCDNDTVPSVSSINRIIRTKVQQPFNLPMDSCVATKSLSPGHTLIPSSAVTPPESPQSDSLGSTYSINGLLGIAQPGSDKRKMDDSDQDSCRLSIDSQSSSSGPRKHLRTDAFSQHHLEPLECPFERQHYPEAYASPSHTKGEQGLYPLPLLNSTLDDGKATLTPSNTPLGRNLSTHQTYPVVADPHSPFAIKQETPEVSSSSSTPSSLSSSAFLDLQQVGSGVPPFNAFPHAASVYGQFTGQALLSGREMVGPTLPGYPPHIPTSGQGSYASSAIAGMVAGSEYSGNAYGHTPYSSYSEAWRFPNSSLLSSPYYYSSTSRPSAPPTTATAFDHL
Fibroblast growth factor receptor 1, sequence (P11362 whole entry): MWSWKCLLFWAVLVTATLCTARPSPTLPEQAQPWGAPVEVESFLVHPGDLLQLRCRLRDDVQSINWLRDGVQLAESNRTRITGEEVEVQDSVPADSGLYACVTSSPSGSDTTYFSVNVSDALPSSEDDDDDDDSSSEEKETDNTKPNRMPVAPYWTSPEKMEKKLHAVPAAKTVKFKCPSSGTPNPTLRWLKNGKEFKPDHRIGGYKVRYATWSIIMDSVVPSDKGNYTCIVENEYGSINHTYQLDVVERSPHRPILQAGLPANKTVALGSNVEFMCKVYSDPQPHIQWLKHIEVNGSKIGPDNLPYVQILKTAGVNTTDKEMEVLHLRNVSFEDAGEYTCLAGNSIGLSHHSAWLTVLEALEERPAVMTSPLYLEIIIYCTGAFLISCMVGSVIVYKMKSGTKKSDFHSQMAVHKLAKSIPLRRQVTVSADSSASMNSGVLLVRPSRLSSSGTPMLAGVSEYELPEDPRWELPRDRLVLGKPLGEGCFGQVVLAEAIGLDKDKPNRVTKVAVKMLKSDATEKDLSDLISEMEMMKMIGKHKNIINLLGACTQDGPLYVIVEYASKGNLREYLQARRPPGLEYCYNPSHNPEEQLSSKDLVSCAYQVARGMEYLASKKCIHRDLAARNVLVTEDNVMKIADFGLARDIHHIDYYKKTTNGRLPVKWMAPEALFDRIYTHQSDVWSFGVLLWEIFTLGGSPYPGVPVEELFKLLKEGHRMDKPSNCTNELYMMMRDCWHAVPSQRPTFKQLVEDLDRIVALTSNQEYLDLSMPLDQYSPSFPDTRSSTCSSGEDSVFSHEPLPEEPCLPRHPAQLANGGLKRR

Fc1ccc2c(c1)-c1n[nH]cc1CS2
Ki [1]: 6.31 µM (active) | Ki (Aurora kinase A): 5.01 µM (active) | Ki [2]: 6.31 µM (active) | Ki [3]: 10 µM (active) | Ki [4]: 12.6 µM (active) | Ki [5]: 15.8 µM (active)

COc1cccc(/C=N/Nc2cc(C)nc(-c3ccccc3O)n2)c1O
EC50 [6]: 5.22 µM (inconclusive) | CC50 [7]: 5.1 µM (active) | EC50 [8]: 0.876 µM (active) | EC50 (Streptokinase A): > 150 µM (not active) | EC50 [9]: 0.294 µM (active) | EC50 (Streptococcus): 6.64 µM (active) | IC50 (CHO-K1): > 66.2 µM (inactive) | IC50 [10]: > 49.8 µM (inactive) | IC50 [11]: 2.91 µM (active) | IC50 [12]: 3.31 µM (active) | AC50 [13]: 30.1 µM (active) | EC50 (Protein RecA): 357 µM (inconclusive) | AC50 (INS1): 1.93 µM (active) | IC50 (Orexin receptor type 2 [14]): 11.9 µM (inactive) | IC50 (Orexin receptor type 2 [15]): > 50 µM (inactive) | AC50 (Paired box protein Pax-8): 5.5 µM (active) | AC50 [16]: 16.2 µM (active)
